These results are taken from patent US11878966B2, “Substituted 4-benzyl and 4-benzoyl piperidine derivates” (89BIO LTD, priority 2015, dated 2024).

In this experiment the target is T1, recombinant human baculovirus-expressed GST-tagged FASN (Homo sapiens, UniProt P49327).
T1 construct: GST; host or cells: baculovirus expression system (insect cells implied)
Briefly: FASN enzyme activity assay: fluorescence-based detection of CoA with CPM. The experiment is classed as biochemical. The conditions noted are these: 5 nM FASN, 150 μM NADPH, 10 μM acetyl-CoA, 25 μM malonyl-CoA, 90 minutes incubation. An excerpt: FASN Enzyme activity may be determined by detecting coenzyme A (CoA), a product of FASN-catalyzed synthesis of palmitate from acetyl-CoA and malonyl-CoA with NADPH as a cofactor. The assay is fluorescence-based and measures the interaction of free CoA with 7-diethylamino-3-(4′-malemimidylphenyl)-4-methylcoumarin (CPM; Life Technologies, CA) as described in Chung et al (2008). The coumarin derivative CPM contains a thiol-reactive maleimide that becomes fluorescent upon interaction with the sulfhydryl group of CoA.
For the example compounds described herein, the reaction was performed in 384-well low volume non-binding platews (Corning, NY) using recombinant human baculovirus-expressed GST-tagged FASN. The 20-μL assay mixture contained 50 mM HEPES (pH 7.5), 5 nM FASN, 150 μM NADPH (Sigma, St. Louis, MO), 10 μM acetyl-CoA (Sigma), 25 μM malonyl-CoA (Sigma) and test compound [diluted in dimethyl sulfoxide (DMSO); 0.5% DMSO final in assay after 100 nL addition]. See, Chung et al.; “A fluorescence-based thiol quantification assay for ultra-high-throughput screening for inhibitors of coenzyme A production,” Assay Drug Dev Tech 2008; 6:361-374.
The reaction was initiated by adding malonyl-CoA, followed by incubation for 90 minutes at […]. A stock solution of the CPM reagent was prepared in DMSO al 66 μM and stored at […]. To detect CoA produced in the FASN reaction, the CPM stock was diluted to 50 μM in 70% ethanol and added at 4 μL/well to the assay place. The reaction mixture was then incubated for 30 minutes. Fluorescence was measured using the EnVision™ 2102 multi-label plate reader (PerkinElmer, Waltham, MA) utilizing a general dual mirror, a 390 nm excitation filter and a 530 nm emission filter. Data analysis was performed using ActivityBase (IDBS, Guilford, UK). IC50 values were calculated by plotting the percent inhibition versus log 10 of the concentration of the compound, and fitting to the nonlinear regression sigmoidal dose-response (variable slope) equation in XLFit (IDBS).

T1 sequence (P49327 whole entry): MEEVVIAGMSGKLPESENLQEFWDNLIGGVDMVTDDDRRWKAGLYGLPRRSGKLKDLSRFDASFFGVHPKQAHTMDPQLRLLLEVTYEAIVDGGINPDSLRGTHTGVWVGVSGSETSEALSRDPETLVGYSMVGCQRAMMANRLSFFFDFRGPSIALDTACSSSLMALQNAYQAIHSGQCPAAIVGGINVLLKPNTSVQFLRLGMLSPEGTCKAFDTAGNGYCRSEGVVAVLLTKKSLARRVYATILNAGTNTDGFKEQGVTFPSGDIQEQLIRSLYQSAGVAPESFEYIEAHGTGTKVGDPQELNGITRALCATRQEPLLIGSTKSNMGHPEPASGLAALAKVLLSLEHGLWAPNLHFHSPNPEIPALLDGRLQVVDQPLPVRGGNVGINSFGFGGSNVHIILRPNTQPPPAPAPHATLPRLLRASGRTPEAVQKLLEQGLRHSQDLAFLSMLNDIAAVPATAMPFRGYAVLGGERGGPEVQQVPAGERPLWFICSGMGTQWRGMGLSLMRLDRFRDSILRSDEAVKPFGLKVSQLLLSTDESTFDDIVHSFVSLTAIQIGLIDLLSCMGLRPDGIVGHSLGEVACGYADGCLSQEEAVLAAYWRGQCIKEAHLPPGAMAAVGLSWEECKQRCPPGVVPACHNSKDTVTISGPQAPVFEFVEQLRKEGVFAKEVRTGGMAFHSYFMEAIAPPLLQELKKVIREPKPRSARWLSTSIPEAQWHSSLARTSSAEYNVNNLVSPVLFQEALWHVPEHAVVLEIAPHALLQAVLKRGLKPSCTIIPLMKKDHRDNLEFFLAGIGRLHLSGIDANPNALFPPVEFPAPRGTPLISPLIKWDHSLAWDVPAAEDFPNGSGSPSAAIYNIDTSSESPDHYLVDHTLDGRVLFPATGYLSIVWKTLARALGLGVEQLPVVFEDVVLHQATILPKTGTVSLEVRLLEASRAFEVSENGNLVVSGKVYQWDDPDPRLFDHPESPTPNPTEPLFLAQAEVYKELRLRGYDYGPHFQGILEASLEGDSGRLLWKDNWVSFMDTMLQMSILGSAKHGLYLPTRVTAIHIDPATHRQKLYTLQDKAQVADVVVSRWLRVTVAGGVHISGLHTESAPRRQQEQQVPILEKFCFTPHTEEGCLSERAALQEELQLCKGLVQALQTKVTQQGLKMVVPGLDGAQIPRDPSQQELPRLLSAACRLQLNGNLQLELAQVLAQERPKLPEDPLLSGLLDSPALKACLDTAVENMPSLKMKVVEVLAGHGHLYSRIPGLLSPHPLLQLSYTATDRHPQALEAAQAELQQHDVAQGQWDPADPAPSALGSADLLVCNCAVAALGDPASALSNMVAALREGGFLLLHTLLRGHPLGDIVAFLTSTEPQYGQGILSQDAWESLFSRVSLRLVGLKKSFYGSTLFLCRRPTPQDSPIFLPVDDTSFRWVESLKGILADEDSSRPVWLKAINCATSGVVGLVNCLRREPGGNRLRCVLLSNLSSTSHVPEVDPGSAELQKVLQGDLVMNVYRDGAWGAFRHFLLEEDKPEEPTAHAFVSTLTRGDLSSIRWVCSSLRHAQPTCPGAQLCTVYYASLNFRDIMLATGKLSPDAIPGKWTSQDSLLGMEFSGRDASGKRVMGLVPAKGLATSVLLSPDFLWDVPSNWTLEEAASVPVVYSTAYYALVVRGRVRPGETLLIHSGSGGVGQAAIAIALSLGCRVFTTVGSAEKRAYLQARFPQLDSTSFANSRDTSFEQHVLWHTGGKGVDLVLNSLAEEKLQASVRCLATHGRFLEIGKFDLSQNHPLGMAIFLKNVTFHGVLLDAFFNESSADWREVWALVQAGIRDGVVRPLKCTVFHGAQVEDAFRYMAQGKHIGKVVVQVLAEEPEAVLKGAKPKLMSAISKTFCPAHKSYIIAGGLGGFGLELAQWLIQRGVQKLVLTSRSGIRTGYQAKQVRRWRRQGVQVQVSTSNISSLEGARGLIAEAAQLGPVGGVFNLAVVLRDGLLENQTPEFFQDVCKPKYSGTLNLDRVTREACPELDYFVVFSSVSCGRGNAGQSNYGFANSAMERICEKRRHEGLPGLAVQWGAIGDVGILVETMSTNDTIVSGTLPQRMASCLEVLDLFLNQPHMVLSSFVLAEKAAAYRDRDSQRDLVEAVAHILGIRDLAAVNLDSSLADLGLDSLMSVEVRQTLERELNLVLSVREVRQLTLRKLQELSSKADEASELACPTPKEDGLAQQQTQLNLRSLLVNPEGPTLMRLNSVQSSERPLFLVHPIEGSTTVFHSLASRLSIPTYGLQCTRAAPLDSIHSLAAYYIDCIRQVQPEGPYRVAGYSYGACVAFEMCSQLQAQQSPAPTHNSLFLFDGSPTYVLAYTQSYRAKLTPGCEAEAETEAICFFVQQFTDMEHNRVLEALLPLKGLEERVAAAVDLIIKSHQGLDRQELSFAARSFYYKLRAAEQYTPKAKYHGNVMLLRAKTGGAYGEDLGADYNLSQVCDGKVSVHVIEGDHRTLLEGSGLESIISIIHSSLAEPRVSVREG

Turning to `COc1c(-c2ccc(C(C)C3CCN(C(=O)[C@H]4CCCO4)CC3)cc2)ccc2cccnc12` (mixture of isomers) [Example 69, (4-{1-[4-(8-Methoxyquinolin-7-yl)-phenyl]-ethyl}-piperidin-1-yl)-(R)-tetrahydrofuran-2-yl-methanone], the 50% inhibitory concentration (IC50) fell in the range of 1 to 99 nM. For the molecule `Cc1c(-c2ccc(C(C)C3CCN(C(=O)[C@H]4CCCO4)CC3)cc2)ccc2cccnc12` (mixture of isomers) [Example 70, (4-{1-[4-(8-Methylquinolin-7-yl)-phenyl]-ethyl}-piperidin-1-yl)-(R)-tetrahydrofuran-2-yl-methanone], the IC50 is 1 to 99 nM.

Take `Cc1c(-c2ccc(C(C)C3CCN(C(=O)[C@H]4CCCO4)CC3)cc2)cnc2ccccc12` (mixture of isomers) [Example 71, (4-{1-[4-(4-Methylquinolin-3-yl)-phenyl]-ethyl}-piperidin-1-yl)-(R)-tetrahydrofuran-2-yl-methanone]: the IC50 lay within 1 to 99 nM. Regarding `CC(c1ccc(-c2ccc3cccnc3c2Cl)cc1)C1CCN(C(=O)[C@H]2CCCO2)CC1` (mixture of isomers) [Example 74, (4-{1-[4-(8-Chloroquinolin-7-yl)-phenyl]-ethyl}-piperidin-1-yl)-(R)-tetrahydrofuran-2-yl-methanone], the half-inhibitory concentration (IC50) was 1 to 99 nM. Take `CC(c1ccc(-c2cnc3ccccc3c2Cl)cc1)C1CCN(C(=O)[C@H]2CCCO2)CC1` (mixture of isomers) [Example 77, (4-{1-[4-(4-Chloroquinolin-3-yl)-phenyl]-ethyl}-piperidin-1-yl)-(R)-tetrahydrofuran-2-yl-methanone]: the IC50 lay in the range of 1 to 99 nM. Regarding `COCCOC(c1ccc(-c2ccc3c(C)nccc3c2)cc1)C1CCN(C(=O)[C@H]2CCCO2)CC1` (mixture of isomers) [Example 82, (4-{(2-Methoxyethoxy)-[4-(1-methylisoquinolin-6-yl)-phenyl]-methyl}-piperidin-1-yl)-(R)-tetrahydrofuran-2-yl-methanone], the 50% inhibitory concentration (IC50) was in the range of 1 to 99 nM. For `CCC(=O)N1CCC(C(=NOC)c2ccc(-c3ccc4cccnc4c3)cc2)CC1` (racemic) [Example 50, 1-{4-[[Methoxyimino]-(4-quinolin-7-yl-phenyl)-methyl]-piperidin-1-yl}-propan-1-one] the value was 1 to 99 nM; for `CCC(=O)N1CC[C@@H](Cc2ccc(-c3cnc4ccccc4c3)cc2)[C@H](O)C1` (relative stereo) [Example 218, 1-[trans-3-Hydroxy-4-(4-quinolin-3-yl-benzyl)-piperidin-1-yl]-propan-1-one], 100 to 999 nM.

Consider `CCC(=O)N1CC[C@@H](Cc2ccc(-c3cnc4ccccc4c3)cc2)[C@H](OC)C1` (relative stereo) [Example 219, 1-[(trans)-3-Methoxy-4-(4-quinolin-3-yl-benzyl)-piperidin-1-yl]-propan-1-one], for which the IC50 was in the range of 100 to 999 nM. Take `CCC(=O)N1CC[C@@H](Cc2ccc(-c3cnc4ccccc4c3)cc2)[C@@H](F)C1` (relative stereo) [Example 221, 1-[cis-3-Fluoro-4-(4-quinolin-3-yl-benzyl)-piperidin-1-yl]-propan-1-one]: the IC50 lay in the range of 1 to 99 nM.

Consider `CCC(=O)N1CCC(C(C)c2ccc(-c3cnc4ccccc4c3)cc2)CC1` (single isomer, unassigned) [Example 67, 1-{4-[1-(4-Quinolin-3-yl-phenyl)-ethyl]-piperidin-1-yl}-propan-1-one], for which the IC50 is 1 to 99 nM. Turning to `CCC(=O)N1CCC(C(C)c2ccc(-c3cnc4ccccc4c3)cc2)CC1` (single isomer, unassigned) [Example 68, 1-{4-[1-(4-Quinolin-3-yl-phenyl)-ethyl]-piperidin-1-yl}-propan-1-one], the IC50 fell in the range of 1 to 99 nM.

As for `O=C(C1CCCO1)N1CC=C(Cc2ccc(-c3ccc4cccnc4c3)cc2)CC1` (stereo in doubt) [Example 188, (R)-(4-(4-(quinolin-7-yl)benzyl)-5,6-dihydropyridin-1(2H)-yl)(tetrahydrofuran-2-yl)methanone], the IC50 lay in the range of 1 to 99 nM. For `O=C(C1CCCO1)N1CCC(F)(Cc2ccc(-c3cnc4ccccc4c3)cc2)CC1` (stereo in doubt) [Example 189, (R)-(4-fluoro-4-(4-(quinolin-3-yl)benzyl)piperidin-1-yl)(tetrahydrofuran-2-yl)methanone] the value was 1 to 99 nM.

For the molecule `O=C(C1CCCO1)N1CC=C(Cc2ccc(-c3cnc4ccccc4c3)cc2)CC1` (stereo in doubt) [Example 190, (R)-(4-(4-(quinolin-3-yl)benzyl)-5,6-dihydropyridin-1(2H)-yl)(tetrahydrofuran-2-yl)methanone], the half-inhibitory concentration (IC50) lay within 1 to 99 nM. With `CCC(=O)N1CCC(Cc2ccc(-c3cnc4ccccc4c3)cc2)CC1` [Example 1, 1-[4-(4-Quinolin-3-yl-benzyl)-piperidin-1-yl]-propan-1-one], the IC50 is 1 to 99 nM.

For the molecule `CC(C)C(=O)N1CCC(Cc2ccc(-c3cnc4ccccc4c3)cc2)CC1` [Example 2, 2-Methyl-1-[4-(4-quinolin-3-yl-benzyl)-piperidin-1-yl]-propan-1-one], the IC50 lay in the range of 1 to 99 nM. In the case of `O=C(C1CC1)N1CCC(Cc2ccc(-c3cnc4ccccc4c3)cc2)CC1` [Example 3, Cyclopropyl-[4-(4-quinolin-3-yl-benzyl)-piperidin-1-yl]-methanone], the half-maximal inhibitory concentration (IC50) is 1 to 99 nM. For `O=C([C@H]1CCCO1)N1CCC(Cc2ccc(-c3cnc4ccccc4c3)cc2)CC1` [Example 4] the value was 1 to 99 nM. Regarding `O=C([C@@H]1CCCO1)N1CCC(Cc2ccc(-c3cnc4ccccc4c3)cc2)CC1` [Example 5], the concentration for half-maximal inhibition (IC50) lay in the range of 1 to 99 nM. `CCC(=O)N1CCC(C(F)c2ccc(-c3cnc4ccccc4c3)cc2)CC1` (centres unmarked) [Example 6, 1-{4-[Fluoro-(4-quinolin-3-yl-phenyl)-methyl]-piperidin-1-yl}-propan-1-one]: the concentration for half-maximal inhibition (IC50) lay in the range of 1 to 99 nM. Regarding `O=C(C1CC1)N1CCC(C(F)c2ccc(-c3cnc4ccccc4c3)cc2)CC1` (centres unmarked) [Example 7, Cyclopropyl-{4-[fluoro-(4-quinolin-3-yl-phenyl)-methyl]-piperidin-1-yl}-methanone], the IC50 lay in the range of 1 to 99 nM. In the case of `O=C([C@H]1CCCO1)N1CCC(C(F)c2ccc(-c3cnc4ccccc4c3)cc2)CC1` (stereo partly drawn) [Example 8, {4-[Fluoro-(4-quinolin-3-yl-phenyl)-methyl]-piperidin-1-yl}-(R)-tetrahydro-furan-2-yl-methanone], the half-maximal inhibitory concentration (IC50) was in the range of 1 to 99 nM. The figure for `CCC(=O)N1CCC(C(F)(F)c2ccc(-c3cnc4ccccc4c3C)cc2)CC1` [Example 9, 1-(4-{difluoro-[4-(4-methyl-quinolin-3-yl)-phenyl]-methyl}-piperidin-1-yl)-propan-1-one] is 100 to 999 nM.

Turning to `Cc1c(-c2ccc(C(F)(F)C3CCN(C(=O)C4CC4)CC3)cc2)cnc2ccccc12` [Example 10, Cyclopropyl-(4-{difluoro-[4-(4-methyl-quinolin-3-yl)-phenyl]-methyl}-piperidin-1-yl)-methanone], the IC50 is 100 to 999 nM. Take `Cc1c(-c2ccc(C(F)(F)C3CCN(C(=O)[C@H]4CCCO4)CC3)cc2)cnc2ccccc12` [Example 11, (4-{Difluoro-[4-(4-methylquinolin-3-yl)-phenyl]-methyl}-piperidin-1-yl)-(R)-tetrahydrofuran-2-yl-methanone]: the IC50 lay within 1 to 99 nM. Regarding `CCC(=O)N1CCC(Cc2ccc(-c3cnc4ccccc4c3C)cc2)CC1` [Example 12, 1-{4-[4-(4-Methylquinolin-3-yl)-benzyl]-piperidin-1-yl}-propan-1-one], the concentration for half-maximal inhibition (IC50) was in the range of 1 to 99 nM. For `Cc1c(-c2ccc(CC3CCN(C(=O)C4CC4)CC3)cc2)cnc2ccccc12` [Example 13, Cyclopropyl-{4-[4-(4-methylquinolin-3-yl)-benzyl]-piperidin-1-yl}-methanone], the concentration for half-maximal inhibition (IC50) was in the range of 1 to 99 nM. `Cc1c(-c2ccc(CC3CCN(C(=O)C4CC(F)(F)C4)CC3)cc2)cnc2ccccc12` [Example 14, (3,3-Difluorocyclobutyl)-{4-[4-(4-methylquinolin-3-yl)-benzyl]-piperidin-1-yl}-methanone]: the 50% inhibitory concentration (IC50) was 1000 to 10000 nM.

With `Cc1c(-c2ccc(CC3CCN(C(=O)[C@H]4CCCO4)CC3)cc2)cnc2ccccc12` [Example 15, {4-[4-(4-Methylquinolin-3-yl)-benzyl]-piperidin-1-yl}-(R)-tetrahydrofuran-2-yl-methanone], the half-maximal inhibitory concentration (IC50) was 1 to 99 nM.

In the case of `CCC(=O)N1CCC(C(F)(F)c2ccc(-c3cnc4ccccc4c3)cc2)CC1` [Example 16, 1-{4-[Difluoro-(4-quinolin-3-yl-phenyl)-methyl]-piperidin-1-yl}-propan-1-one], the half-inhibitory concentration (IC50) lay in the range of 100 to 999 nM. For `O=C(C1CC1)N1CCC(C(F)(F)c2ccc(-c3cnc4ccccc4c3)cc2)CC1` [Example 17, Cyclopropyl-{4-[difluoro-(4-quinolin-3-yl-phenyl)-methyl]-piperidin-1-yl}-methanone] the value was 100 to 999 nM.

As a reminder, the IC50 is the midpoint of a concentration-inhibition curve.
